Read-outs that look alike come from different tables or passages of the source.
How the values were obtained:
Erk1 = target: T1, Erk1 (Homo sapiens, UniProt P27361); assay: Protein Mass Modification Assay (intact protein MALDI, 60 min, 10-fold excess of compound); assay type: binding
T1 construct: purchased Millipore 14-439
Summary of the method: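 Percent covalent modification comes from the intact-protein MALDI centroid mass shift, treated versus control, divided by compound MW. Before analysis, human Erk1 was exposed to compound at 10-fold excess over protein for 60 min at room temperature.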

[1] = tested on: A375 cells (malignant melanoma); assay: Inhibition of cancer cell proliferation, A375 (CellTiterGlo, 72 hours); assay type: cell-based; details: Homo sapiens, A-375
Summary of the method: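 GI50 derived from % growth inhibition relative to untreated wells, after luminescence (CellTiterGlo, 10 min) was converted to cell counts using a standard curve. Compound given as 3-fold dilutions from a 2× 5,000 nM stock in serum-free DMEM; 3000 A375 cells/well, 72 h culture at 37 °C.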

[2] = tested on: ERK1/2 phosphorylation of p90RSK in HT29 cells; assay: pRSK MSD Assay in HT29 cells; assay type: cell-based; details: Homo sapiens, HT-29, read-out: ERK1/ERK2 PRSK MSD HT29 EC50
Summary of the method: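 Phospho-RSK level, read by electrochemiluminescence on RSK-antibody-coated MSD plates with a phospho-RSK/Sulfo-tag detection pair, reports cellular ERK1/2 activity. HT29 cells, kept overnight in 0.1% FBS medium, were exposed to compound for 120 min at 37° C before lysis.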

MEK1 activated ERK1 = target: T2, MEK1 activated ERK1 (Homo sapiens, UniProt P27361); assay: Omnia continuous-read kinase assay for potency against MEK1 activated ERK1; assay type: biochemical
T2 construct: purchased Millipore (Billerica, Mass.) 14-439-K
T2 sequence (P27361 whole entry): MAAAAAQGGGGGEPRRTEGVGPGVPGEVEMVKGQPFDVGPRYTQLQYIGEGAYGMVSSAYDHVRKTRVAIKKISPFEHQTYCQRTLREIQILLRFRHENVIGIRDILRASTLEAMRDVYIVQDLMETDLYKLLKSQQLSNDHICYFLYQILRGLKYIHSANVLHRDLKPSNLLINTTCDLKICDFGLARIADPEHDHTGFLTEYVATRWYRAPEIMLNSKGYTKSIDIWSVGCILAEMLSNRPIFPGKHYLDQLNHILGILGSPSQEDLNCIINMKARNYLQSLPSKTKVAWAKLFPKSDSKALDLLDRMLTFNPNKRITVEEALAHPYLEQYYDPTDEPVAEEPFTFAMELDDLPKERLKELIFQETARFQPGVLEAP
Summary of the method: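 Apparent IC50 came from initial reaction slopes (RFU vs time) plotted against log inhibitor with a variable-slope fit. Reactions were started with ERK1 (4 nM final) added to 50 μM ATP, roughly at its appKM, and 10 μM Sox-conjugated ST17 peptide in 20 mM Tris pH 7.5, 5 mM MgCl2. Fluorescence was monitored every 71 seconds.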

[3] = MEK1 activated ERK1, ATP at KM, read-out: ERK1 Omnia WT ATP KM IC50

T1 sequence (P27361 whole entry): as above

Compound | ERK1 Mass Mod (%) (Erk1) | GI50 [1] [nM] | EC50 [2] [nM] | IC50 (MEK1 activated ERK1; ATP at KM, WT) [nM] | IC50 (MEK1 activated ERK1; [3]) [nM]
C=CC(=O)Nc1cc(C)ccc1Nc1nc(Nc2ncc(C(F)(F)F)c(OC)n2)ncc1C(F)(F)F [Compound I-354, N-(2-((2-((4-methoxy-5-(trifluoromethyl)pyrimidin-2-yl)amino)-5-(trifluoromethyl)pyrimidin-4-yl)amino)-5-methylphenyl)acrylamide] | E (a mass modification of ≧70%) | 501 to 999 | 101 to 500 | 101 to 500 | 
C=CC(=O)Nc1cc(C)ccc1Nc1nc(Nc2nc(OC)ncc2F)ncc1C(F)(F)F [Compound I-357, N-(2-((2-((5-fluoro-2-methoxypyrimidin-4-yl)amino)-5-(trifluoromethyl)pyrimidin-4-yl)amino)-5-methylphenyl)acrylamide] | E (a mass modification of ≧70%) | 101 to 500 | 101 to 500 | 101 to 500 | 
C=CC(=O)Nc1cc(C)ccc1Nc1nc(Nc2ncc(F)c(OC)n2)ncc1C(F)(F)F [Compound I-356, N-(2-((2-((5-fluoro-4-methoxypyrimidin-2-yl)amino)-5-(trifluoromethyl)pyrimidin-4-yl)amino)-5-methylphenyl)acrylamide] | E (a mass modification of ≧70%) | 501 to 999 | 101 to 500 | 501 to 999 | 
C=CC(=O)Nc1cc(C)ccc1Nc1nc(Nc2ccnc3ccccc23)ncc1C(F)(F)F [Compound I-379, N-(5-methyl-2-((2-(quinolin-4-ylamino)-5-(trifluoromethyl)pyrimidin-4-yl)amino)phenyl)acrylamide] | E (a mass modification of ≧70%) | 101 to 500 | < 100 | 101 to 500 | 
C=CC(=O)Nc1cc(C)ccc1Nc1nc(Nc2cc(OC)nc(N3CCN(C(C)=O)CC3)c2)ncc1C(F)(F)F [Compound I-93, N-(2-((2-((2-(4-Acetylpiperazin-1-yl)-6-methoxypyridin-4-yl)amino)-5-(trifluoromethyl)pyrimidin-4-yl)amino)-5-methylphenyl)acrylamide] | E (key: E: a mass modification of ≧70%; F: a mass modification of 31-69%; G: a mass modification ≦30%) | < 100 | < 100 |  | 101 to 500
C=CC(=O)Nc1cc(C)ccc1Nc1nc(Nc2nc(OC)ncc2C#N)ncc1C(F)(F)F [Compound I-346, N-(2-((2-((5-cyano-2-methoxypyrimidin-4-yl)amino)-5-(trifluoromethyl)pyrimidin-4-yl)amino)-5-methylphenyl)acrylamide] | E (a mass modification of ≧70%) | 101 to 500 | 101 to 500 | 501 to 999 | 
C=CC(=O)Nc1cc(C)c(F)cc1Nc1nc(Nc2nc(OC)ncc2C)ncc1C(F)(F)F [Compound I-377, N-(4-fluoro-2-((2-((2-methoxy-5-methylpyrimidin-4-yl)amino)-5-(trifluoromethyl)pyrimidin-4-yl)amino)-5-methylphenyl)acrylamide] | E (a mass modification of ≧70%) | 101 to 500 | < 100 | < 100 | 
C=CC(=O)Nc1cc(C)ccc1Nc1nc(Nc2cc(NCCOC)nc(OC)c2)ncc1C(F)(F)F [Compound I-294, N-(2-((2-((2-methoxy-6-((2-methoxyethyl)amino)pyridin-4-yl)amino)-5-(trifluoromethyl)pyrimidin-4-yl)amino)-5-methylphenyl)acrylamide] | E (a mass modification of ≧70%) | < 100 | < 100 |  | 101 to 500

Now from value to compound, other results behind:

ERK1 Mass Mod (%) (Erk1) | GI50 [1] [nM] | EC50 [2] [nM] | IC50 (MEK1 activated ERK1; ATP at KM, WT) [nM] | Compound | IC50 (MEK1 activated ERK1; [3]) [nM]
E (a mass modification of ≧70%) | < 100 | < 100 | < 100 | C=CC(=O)Nc1cc(OCC(N)=O)ccc1Nc1nc(Nc2cc(OC)ncc2C)ncc1C(F)(F)F [Compound I-398, N-(5-(2-amino-2-oxoethoxy)-2-((2-((2-methoxy-5-methylpyridin-4-yl)amino)-5-(trifluoromethyl)pyrimidin-4-yl)amino)phenyl)acrylamide] | 
E (a mass modification of ≧70%) | < 100 | < 100 |  | C=CC(=O)Nc1ccccc1Nc1nc(Nc2cc(OC)ncc2C)ncc1C(F)(F)F [Compound I-85, N-(2-((2-((2-Methoxy-5-methylpyridin-4-yl)amino)-5-(trifluoromethyl)pyrimidin-4-yl)amino)phenyl)acrylamide] | < 100
E (a mass modification of ≧70%) | < 100 | < 100 | < 100 | C=CC(=O)Nc1cc(C)ccc1Nc1nc(Nc2nc(OC)ncc2C)ncc1C(F)(F)F [Compound I-347, N-(2-((2-((2-methoxy-5-methylpyrimidin-4-yl)amino)-5-(trifluoromethyl)pyrimidin-4-yl)amino)-5-methylphenyl)acrylamide] | 
E (a mass modification of ≧70%) | 101 to 500 | < 100 | < 100 | C=CC(=O)Nc1cc(CCC(N)=O)ccc1Nc1nc(Nc2cc(OC)ncc2C)ncc1C(F)(F)F [Compound I-400, N-(5-(3-amino-3-oxopropyl)-2-((2-((2-methoxy-5-methylpyridin-4-yl)amino)-5-(trifluoromethyl)pyrimidin-4-yl)amino)phenyl)acrylamide] | 
E (a mass modification of ≧70%) | 101 to 500 | < 100 | 101 to 500 | C=CC(=O)Nc1cc(C)ccc1Nc1nc(Nc2cc(OCCO)ncc2C)ncc1C(F)(F)F [Compound I-376, N-(2-((2-((2-(2-hydroxyethoxy)-5-methylpyridin-4-yl)amino)-5-(trifluoromethyl)pyrimidin-4-yl)amino)-5-methylphenyl)acrylamide] | 
